In patent publication US20250154531A1, “METHODS FOR IMPROVED HOMOLOGOUS RECOMBINATION AND COMPOSITIONS THEREOF” (LIFE TECHNOLOGIES CORPORATION, priority 2017, published 2025):

What was measured:
[1] = system: β-actin in THP-1; assay: One-step knock-in of OFP with NHEJ inhibitor in THP-1 cells; assay type: cell-based; details: THP-1, in media for two days after transfection
Method: (§1) Various cell types (NK-92, THP-1, Jurkat) were transfected with 1 μg TRUECUT™ Cas9 Protein v2 and 250 ng of β-actin gRNA, and 0.25 μg, 0.5 μg, or 1 μg OFP-Puro in electroporation buffer. Electroporation was performed using the NEON® Transfection System. After electroporation, the cells were cultured in media containing NHEJ inhibitor (Ku0060648) for two days, then analyzed via FACS analysis for SSC-A and OFP.

[2] = system: β-actin in Jurkat; assay: One-step knock-in of OFP with NHEJ inhibitor in Jurkat cells; assay type: cell-based; details: in media for two days after transfection
Method: as §1

[3] = system: T cell receptor (TRAC gRNA); assay: One-step knock-in with two Cas9/gRNA complexes in primary T cells, knock-out efficiency; assay type: cell-based, human; details: in media for two days after electroporation
Method: (§2) Human primary T cells were isolated and activated as in Example 10. On the third day after activation, cells were transfected with 1 μg TRUECUT™ Cas9 Protein v2 with 250 ng of β-actin gRNA, 1 μg TRUECUT™ Cas9 Protein v2 with 250 ng of a guide RNA targeting the T cell receptor (TRAC gRNA), and 1 μg OFP-Puro in electroporation buffer. Electroporation was performed using the NEON® Transfection System, program 24. After electroporation, the cells were cultured in media containing NHEJ inhibitor (Ku0060648) for two days, then analyzed via FACS analysis for SSC-A and OFP.

[4] = system: β-actin; assay: One-step knock-in with two Cas9/gRNA complexes in primary T cells, knock-in efficiency; assay type: cell-based, human; details: in media for two days after electroporation
Method: as §2

[5] = system: β-actin in NK-92; assay: One-step knock-in of OFP with NHEJ inhibitor in NK-92 cells; assay type: cell-based; details: NK-92, in media for two days after transfection
Method: as §1

[6] = system: genomic locus of beta-actin; assay: Insertion of puromycin-P2A-OFP into beta-actin locus in human primary T cells, OFP-positive cells by flow cytometry; assay type: cell-based; details: 30 μM in culture medium after electroporation, 48 hours
Method: Human peripheral blood mononuclear cells (PBMCs) were isolated from peripheral blood using Ficoll-Paque PLUS density gradient according to manufacturer's instructions. The human primary T cells were then isolated using DYNABEADS™ UNTOUCHED™ Human T Cells Kit and expanded using OPTMIZER™ CTS™ T-Cell Expansion SFM supplemented with 200 IU/mL of IL-2. The activation and expansion of human T cells were carried out using DYNABEADS™ Human T-Expander CD3/CD28 kit. On day 3 of activation, T cells were harvested for transfection.
For transfection of primary T cells, 1×10^5 cells were used per NEON® electroporation with voltage set at 1700V, pulse width set at 20 ms, and the number of pulses set at 1, respectively. To evaluate the effects of chemical modification on HDR efficiency, phosphorothioate or amine-modified nucleotides were added at specific positions of the oligonucleotides during chemical synthesis. The resulting modified oligonucleotides were then used to amplify the donor DNA. […] Cells were analyzed at 48 hours post transfection.
Linear ds- or ss-DNA donor could be degraded in vivo by exonucleases. […] At 48 hours post transfection, the percentages of OFP-positive cells were determined by flow cytometric analysis. […]
The disruption of NHEJ repair pathway is known to improve HDR efficiency. […] At 48 hours post transfection, we analyzed the cells by flow cytometry.

Structure (SMILES) | knock-in efficiency [1] | knock-in efficiency [2] | knock-out efficiency (Q3 and Q4) [3] | knock-in efficiency (Q3) [4] | knock-in efficiency [5] | increase of the percentage of OFP-positive cells ([6]; amine-modified donor DNA) [fold] | increase of the percentage of OFP-positive cells ([6]; unmodified donor DNA)
CCN1CCN(CC(=O)Nc2ccc(-c3cccc4c(=O)cc(N5CCOCC5)oc34)c3sc4ccccc4c23)CC1 [Ku-0060648, 4-Ethyl-N-[4-[2-(4-morpholinyl)-4-oxo-4H-1-benzopyran-8-yl]-1-dibenzothienyl]-1-piperazineacetamide] | increased knock-in efficiency | increased knock-in efficiency | without affecting knock-out efficiency | increased knock-in efficiency | increased knock-in efficiency |  | 
O=c1cc(N2CCOCC2)oc2c1ccc1ccccc12 [Nu7026, 2-(4-Morpholinyl)-4H-naphthol[1,2-b]pyran-4-one] |  |  |  |  |  | ~2 | approximately 5 fold
